Measurements published in patent publication US4015974A, “Amido phosphorothiolates” (priority 1972, dated 1977).

Columns and labels:
Format in all cases: in vivo
[1] = system: common purslane (Portulaca oleracea); experiment: Pre-emergence application, herbicidal effect on common purslane (Table 1); design: key: 0: not damaged; 5: completely killed; conditions: 20 days after application, score 0-5
Description: (§1) Seeds of barnyard grass (Echinochloa crus-galli) and large crabgrass (Digitaria sanguinalis) as representatives of grassy weeds and those of radish, redroot pigweed (Amaranthus retroflexus), common purslane (Portulaca oleracea) and common lambsquarter (Chenopodium album) as representatives of broad-leaved weeds were individually sowed in flower pots of about 10 cm. in diameter. After covering the seeds with soil, test compounds as shown in Table 1 were individually applied to the soil treatment. Thereafter the plants were grown in a green house and 20 days after application the herbicidal effects of the compounds were observed, the results of which are as shown in Table 1.
(§2) Herbicidal effects were evaluated by the numerals ranging from 0 (not damaged) to 5 (completely killed). All the test compounds were used in the form of wettable powder and diluted with water before application.

[2] = system: barnyard grass (Echinochloa crus-galli); experiment: Pre-emergence application, herbicidal effect on barnyard grass (Table 1); design: key: 0: not damaged; 5: completely killed; conditions: 20 days after application, score 0-5
Description: as §1, §2

[3] = system: redroot pigweed (Amaranthus retroflexus); experiment: Pre-emergence application, herbicidal effect on redroot pigweed (Table 1); design: key: 0: not damaged; 5: completely killed; conditions: 20 days after application, score 0-5
Description: as §1, §2

rice = experiment: Water application, phytotoxicity on rice (Table 2); design: key: 0: no effect; 1: very slightly affected; 2: slightly affected; 3: moderately affected; 4: considerably affected; 5: completely killed; conditions: 25 days, score 0-5
Description: (§3) Wagner pots of 14 cm. in diameter, which had been packed with 1.5 kg. of paddy field soil, were brought into the state of paddy fields. To the pots were transplanted rice seedlings at the 3-leave stage. Further, seeds of barnyard grass (Echinochloa crus-galli) were sowed in the pots and required amounts of test compounds were applied to the soil under water lodged condition. 25 days after application, the degrees of herbicidal activity and phytotoxity were investigated on above-mentioned plants which had been transplanted and sowed, and on broad-leaved weeds, e.g., monochoria (Monochoria viaginalis Presl.), false pimpernel (Linderna pyxidaria) and toothcup (Rotala indica Koehue), which had been spontaneously germinated. The test compounds were used in the form of wettable powder. The herbicidal effects and the phytotoxity were evaluated as follows by the numerals ranging from 0 to 5.

[4] = system: common lambsquarter (Chenopodium album); experiment: Pre-emergence application, herbicidal effect on common lambsquarter (Table 1); design: key: 0: not damaged; 5: completely killed; conditions: 20 days after application, score 0-5
Description: as §1, §2

[5] = system: large crabgrass (Digitaria sanguinalis); experiment: Pre-emergence application, herbicidal effect on large crabgrass (Table 1); design: key: 0: not damaged; 5: completely killed; conditions: 20 days after application, score 0-5
Description: as §1, §2

[6] = system: barnyard grass (Echinochloa crus-galli); experiment: Water application, herbicidal effect on barnyard grass (Table 2); design: key: 0: not damaged; 5: completely killed; conditions: 25 days, score 0-5
Description: as §3

[7] = system: broad-leaved weeds, e.g., monochoria, false pimpernel and toothcup; experiment: Water application, herbicidal effect on broad-leaved weeds (Table 2); design: key: 0: not damaged; 5: completely killed; conditions: 25 days, score 0-5
Description: as §3

radish = experiment: Pre-emergence application, herbicidal effect on radish (Table 1); design: key: 0: not damaged; 5: completely killed; conditions: 20 days after application, score 0-5
Description: as §1, §2

CCCCCSP(=O)(OCCC)SCC(=O)N1CCCCC1C (stereo not drawn) [Compound 68]
0: Phytotoxicity on rice (rice; 10 g/a) | Phytotoxicity on rice (rice; 20 g/a) | Phytotoxicity on rice (rice; 40 g/a) | Herbicidal effect, radish (radish; 10 g./a.) | Herbicidal effect, radish (radish; 20 g./a.) | Herbicidal effect, radish (radish; 40 g./a.)
5: Herbicidal effect, common purslane ([1]; 40 g./a.) | Herbicidal effect, barnyard grass ([2]; 40 g./a.) | Herbicidal effect, redroot pigweed ([3]; 40 g./a.) | Herbicidal effect, common lambsquarter ([4]; 40 g./a.) | Herbicidal effect, large crabgrass ([5]; 40 g./a.) | Herbicidal effects, barnyard grass ([6]; 10 g/a) | Herbicidal effects, barnyard grass ([6]; 20 g/a) | Herbicidal effects, barnyard grass ([6]; 40 g/a) | Herbicidal effects, broad-leaved weeds ([7]; 10 g/a) | Herbicidal effects, broad-leaved weeds ([7]; 20 g/a) | Herbicidal effects, broad-leaved weeds ([7]; 40 g/a)
4: Herbicidal effect, common purslane ([1]; 20 g./a.) | Herbicidal effect, barnyard grass ([2]; 10 g./a.) | Herbicidal effect, barnyard grass ([2]; 20 g./a.) | Herbicidal effect, redroot pigweed ([3]; 10 g./a.) | Herbicidal effect, redroot pigweed ([3]; 20 g./a.) | Herbicidal effect, common lambsquarter ([4]; 10 g./a.) | Herbicidal effect, common lambsquarter ([4]; 20 g./a.) | Herbicidal effect, large crabgrass ([5]; 10 g./a.) | Herbicidal effect, large crabgrass ([5]; 20 g./a.)
3: Herbicidal effect, common purslane ([1]; 10 g./a.)

CCOP(=O)(SCC(=O)N1CCC(C)CC1)SC(C)CC (stereo not drawn) [Compound 27]
0: Phytotoxicity on rice (rice; 10 g/a) | Phytotoxicity on rice (rice; 20 g/a) | Phytotoxicity on rice (rice; 40 g/a) | Herbicidal effect, radish (radish; 10 g./a.) | Herbicidal effect, radish (radish; 20 g./a.) | Herbicidal effect, radish (radish; 40 g./a.)
5: Herbicidal effect, barnyard grass ([2]; 20 g./a.) | Herbicidal effect, barnyard grass ([2]; 40 g./a.) | Herbicidal effect, redroot pigweed ([3]; 40 g./a.) | Herbicidal effect, common lambsquarter ([4]; 40 g./a.) | Herbicidal effect, large crabgrass ([5]; 10 g./a.) | Herbicidal effect, large crabgrass ([5]; 20 g./a.) | Herbicidal effect, large crabgrass ([5]; 40 g./a.) | Herbicidal effects, barnyard grass ([6]; 10 g/a) | Herbicidal effects, barnyard grass ([6]; 20 g/a) | Herbicidal effects, barnyard grass ([6]; 40 g/a) | Herbicidal effects, broad-leaved weeds ([7]; 10 g/a) | Herbicidal effects, broad-leaved weeds ([7]; 20 g/a) | Herbicidal effects, broad-leaved weeds ([7]; 40 g/a)
3: Herbicidal effect, redroot pigweed ([3]; 10 g./a.)
4: Herbicidal effect, common purslane ([1]; 10 g./a.) | Herbicidal effect, common purslane ([1]; 20 g./a.) | Herbicidal effect, common purslane ([1]; 40 g./a.) | Herbicidal effect, barnyard grass ([2]; 10 g./a.) | Herbicidal effect, redroot pigweed ([3]; 20 g./a.) | Herbicidal effect, common lambsquarter ([4]; 10 g./a.) | Herbicidal effect, common lambsquarter ([4]; 20 g./a.)

CCOP(=O)(SCCC(C)C)SCC(=O)N1CCCCC1CC (stereo not drawn) [Compound 79]
5: Herbicidal effect, common purslane ([1]; 10 g./a.) | Herbicidal effect, common purslane ([1]; 20 g./a.) | Herbicidal effect, common purslane ([1]; 40 g./a.) | Herbicidal effect, barnyard grass ([2]; 10 g./a.) | Herbicidal effect, barnyard grass ([2]; 20 g./a.) | Herbicidal effect, barnyard grass ([2]; 40 g./a.) | Herbicidal effect, redroot pigweed ([3]; 20 g./a.) | Herbicidal effect, redroot pigweed ([3]; 40 g./a.) | Herbicidal effect, common lambsquarter ([4]; 10 g./a.) | Herbicidal effect, common lambsquarter ([4]; 20 g./a.) | Herbicidal effect, common lambsquarter ([4]; 40 g./a.) | Herbicidal effect, large crabgrass ([5]; 10 g./a.) | Herbicidal effect, large crabgrass ([5]; 20 g./a.) | Herbicidal effect, large crabgrass ([5]; 40 g./a.) | Herbicidal effects, barnyard grass ([6]; 10 g/a) | Herbicidal effects, barnyard grass ([6]; 20 g/a) | Herbicidal effects, barnyard grass ([6]; 40 g/a) | Herbicidal effects, broad-leaved weeds ([7]; 10 g/a) | Herbicidal effects, broad-leaved weeds ([7]; 20 g/a) | Herbicidal effects, broad-leaved weeds ([7]; 40 g/a)
4: Herbicidal effect, redroot pigweed ([3]; 10 g./a.)
0: Phytotoxicity on rice (rice; 10 g/a) | Phytotoxicity on rice (rice; 20 g/a) | Herbicidal effect, radish (radish; 10 g./a.) | Herbicidal effect, radish (radish; 20 g./a.)
1: Phytotoxicity on rice (rice; 40 g/a) | Herbicidal effect, radish (radish; 40 g./a.)

CCCOP(=O)(SCC(=O)N1CCCCC1CC)SC(C)CC (stereo not drawn) [Compound 87]
0: Phytotoxicity on rice (rice; 10 g/a) | Phytotoxicity on rice (rice; 20 g/a) | Phytotoxicity on rice (rice; 40 g/a) | Herbicidal effect, radish (radish; 10 g./a.) | Herbicidal effect, radish (radish; 20 g./a.) | Herbicidal effect, radish (radish; 40 g./a.)
3: Herbicidal effect, common purslane ([1]; 10 g./a.) | Herbicidal effect, redroot pigweed ([3]; 10 g./a.) | Herbicidal effect, common lambsquarter ([4]; 10 g./a.) | Herbicidal effect, common lambsquarter ([4]; 20 g./a.)
4: Herbicidal effect, common purslane ([1]; 20 g./a.) | Herbicidal effect, redroot pigweed ([3]; 20 g./a.)
5: Herbicidal effect, common purslane ([1]; 40 g./a.) | Herbicidal effect, barnyard grass ([2]; 10 g./a.) | Herbicidal effect, barnyard grass ([2]; 20 g./a.) | Herbicidal effect, barnyard grass ([2]; 40 g./a.) | Herbicidal effect, redroot pigweed ([3]; 40 g./a.) | Herbicidal effect, common lambsquarter ([4]; 40 g./a.) | Herbicidal effect, large crabgrass ([5]; 10 g./a.) | Herbicidal effect, large crabgrass ([5]; 20 g./a.) | Herbicidal effect, large crabgrass ([5]; 40 g./a.) | Herbicidal effects, barnyard grass ([6]; 10 g/a) | Herbicidal effects, barnyard grass ([6]; 20 g/a) | Herbicidal effects, barnyard grass ([6]; 40 g/a) | Herbicidal effects, broad-leaved weeds ([7]; 10 g/a) | Herbicidal effects, broad-leaved weeds ([7]; 20 g/a) | Herbicidal effects, broad-leaved weeds ([7]; 40 g/a)

CCCCOP(=O)(SCCCC)SCC(=O)N1CCCCC1CC (stereo not drawn) [Compound 95]
4: Herbicidal effect, barnyard grass ([2]; 10 g./a.) | Herbicidal effect, common lambsquarter ([4]; 40 g./a.) | Herbicidal effect, large crabgrass ([5]; 10 g./a.)
5: Herbicidal effect, barnyard grass ([2]; 20 g./a.) | Herbicidal effect, barnyard grass ([2]; 40 g./a.) | Herbicidal effect, large crabgrass ([5]; 20 g./a.) | Herbicidal effect, large crabgrass ([5]; 40 g./a.) | Herbicidal effects, barnyard grass ([6]; 10 g/a) | Herbicidal effects, barnyard grass ([6]; 20 g/a) | Herbicidal effects, barnyard grass ([6]; 40 g/a) | Herbicidal effects, broad-leaved weeds ([7]; 10 g/a) | Herbicidal effects, broad-leaved weeds ([7]; 20 g/a) | Herbicidal effects, broad-leaved weeds ([7]; 40 g/a)
3: Herbicidal effect, common purslane ([1]; 20 g./a.) | Herbicidal effect, common purslane ([1]; 40 g./a.) | Herbicidal effect, redroot pigweed ([3]; 20 g./a.) | Herbicidal effect, redroot pigweed ([3]; 40 g./a.) | Herbicidal effect, common lambsquarter ([4]; 20 g./a.)
2: Herbicidal effect, common purslane ([1]; 10 g./a.) | Herbicidal effect, redroot pigweed ([3]; 10 g./a.) | Herbicidal effect, common lambsquarter ([4]; 10 g./a.)
0: Phytotoxicity on rice (rice; 10 g/a) | Phytotoxicity on rice (rice; 20 g/a) | Phytotoxicity on rice (rice; 40 g/a) | Herbicidal effect, radish (radish; 10 g./a.) | Herbicidal effect, radish (radish; 20 g./a.) | Herbicidal effect, radish (radish; 40 g./a.)

CCOP(=O)(SCC)SCC(=O)N1CCC(C)CC1 (stereo not drawn) [Compound 100]
5: Herbicidal effect, common purslane ([1]; 40 g./a.) | Herbicidal effect, barnyard grass ([2]; 20 g./a.) | Herbicidal effect, barnyard grass ([2]; 40 g./a.) | Herbicidal effect, redroot pigweed ([3]; 40 g./a.) | Herbicidal effect, common lambsquarter ([4]; 40 g./a.) | Herbicidal effect, large crabgrass ([5]; 10 g./a.) | Herbicidal effect, large crabgrass ([5]; 20 g./a.) | Herbicidal effect, large crabgrass ([5]; 40 g./a.) | Herbicidal effects, barnyard grass ([6]; 10 g/a) | Herbicidal effects, barnyard grass ([6]; 20 g/a) | Herbicidal effects, barnyard grass ([6]; 40 g/a) | Herbicidal effects, broad-leaved weeds ([7]; 10 g/a) | Herbicidal effects, broad-leaved weeds ([7]; 20 g/a) | Herbicidal effects, broad-leaved weeds ([7]; 40 g/a)
0: Phytotoxicity on rice (rice; 10 g/a) | Phytotoxicity on rice (rice; 20 g/a) | Phytotoxicity on rice (rice; 40 g/a) | Herbicidal effect, radish (radish; 10 g./a.) | Herbicidal effect, radish (radish; 20 g./a.)
3: Herbicidal effect, common purslane ([1]; 10 g./a.) | Herbicidal effect, common lambsquarter ([4]; 10 g./a.)
4: Herbicidal effect, common purslane ([1]; 20 g./a.) | Herbicidal effect, barnyard grass ([2]; 10 g./a.) | Herbicidal effect, redroot pigweed ([3]; 10 g./a.) | Herbicidal effect, redroot pigweed ([3]; 20 g./a.) | Herbicidal effect, common lambsquarter ([4]; 20 g./a.)
1: Herbicidal effect, radish (radish; 40 g./a.)

CCCCOP(=O)(SCCC(C)C)SCC(=O)N1CCCCC1CC (stereo not drawn) [Compound 99]
0: Phytotoxicity on rice (rice; 10 g/a) | Phytotoxicity on rice (rice; 20 g/a) | Phytotoxicity on rice (rice; 40 g/a) | Herbicidal effect, radish (radish; 10 g./a.) | Herbicidal effect, radish (radish; 20 g./a.) | Herbicidal effect, radish (radish; 40 g./a.)
5: Herbicidal effect, common purslane ([1]; 10 g./a.) | Herbicidal effect, common purslane ([1]; 20 g./a.) | Herbicidal effect, common purslane ([1]; 40 g./a.) | Herbicidal effect, barnyard grass ([2]; 20 g./a.) | Herbicidal effect, barnyard grass ([2]; 40 g./a.) | Herbicidal effect, redroot pigweed ([3]; 20 g./a.) | Herbicidal effect, redroot pigweed ([3]; 40 g./a.) | Herbicidal effect, common lambsquarter ([4]; 10 g./a.) | Herbicidal effect, common lambsquarter ([4]; 20 g./a.) | Herbicidal effect, common lambsquarter ([4]; 40 g./a.) | Herbicidal effect, large crabgrass ([5]; 10 g./a.) | Herbicidal effect, large crabgrass ([5]; 20 g./a.) | Herbicidal effect, large crabgrass ([5]; 40 g./a.) | Herbicidal effects, barnyard grass ([6]; 10 g/a) | Herbicidal effects, barnyard grass ([6]; 20 g/a) | Herbicidal effects, barnyard grass ([6]; 40 g/a) | Herbicidal effects, broad-leaved weeds ([7]; 10 g/a) | Herbicidal effects, broad-leaved weeds ([7]; 20 g/a) | Herbicidal effects, broad-leaved weeds ([7]; 40 g/a)
4: Herbicidal effect, barnyard grass ([2]; 10 g./a.) | Herbicidal effect, redroot pigweed ([3]; 10 g./a.)
